For 87 molecules, melting point results are on record in a melting point compilation (Tetko et al.; mined from patent text by program, amines drawn as free bases though some values may be those of a salt).

In general, melting point refers to the temperature of the solid-liquid transition.

Structures are written as SMILES. Bounds are passed on as bounds.

For `CCCCCCCCCCOc1ccc(C(=O)O)cc1C(C)(C)C`, the melting point lay within 130 to 132 °C.
The same measure for `CN(C)CCCC(c1ccncc1)S(=O)(=O)c1ccc(Cl)cc1` (configuration not stated): 78 to 80 °C; for `O=C1OCC(CCO)(c2ccc(Cl)c(Cl)c2)CN1Cc1ccccc1` (configuration not stated): 143 °C.
Under `C=C(C)c1ccc(-c2ccc(C(=C)C)cc2)cc1` stands 182 °C; under `COC(=O)C1CCCN1S(=O)(=O)c1ccc(C)cc1` (racemic), 93 °C.
In the case of `N#CC(O)C1(F)CCN(C(=O)c2ccc(F)c(Cl)c2)CC1` (configuration not stated), the melting point was 139 to 140 °C.
Consider `COc1c(Cl)ccc(-c2cc(N)c(Cl)c(C(=O)OCc3ccc(Cl)cc3Cl)n2)c1F`, for which the melting point lay in the range of 165 to 168 °C.
The same measure for `CC(=O)N(C)C(Cc1ccncc1)C(=O)O` (configuration not stated): 86 to 88 °C.
`CCOC(=O)C(Oc1ccc2ccccc2c1)C(=O)OCC` yielded a melting point of 57 to 58.5 °C.
The same measure for `CCN1CCNC(=O)C1c1ccc(Nc2nc(Br)cn(CC)c2=O)cc1` (configuration not stated): 152 to 153 °C; for `CCCc1nn(C)c2c(=O)n(CCCc3cccc(OC(C)(CC)C(=O)O)c3)c(C)nc12` (configuration not stated): 136 to 138 °C.
On to `CC(=O)OCC(C)(C)c1cc(OS(C)(=O)=O)ccc1OC(C)=O`, for which the melting point lay within 49 to 51 °C.
The same measure for `COc1cccc(Nc2ncc3cc4ccccc4n3n2)c1`: 191 to 193 °C; for `Cc1nnc(-c2ccccc2OCC2CO2)o1` (configuration not stated): 38 to 40 °C; for `O=c1[nH]cnn1-c1ccc(C(F)(F)F)cc1`: 221 °C.
The same measure for `CCOC(=O)N1CCC(n2nc(Cc3ccc(F)cc3)c3ccccc3c2=O)CC1`: 151 to 152 °C; for `N#CC1(C2CCCc3ccccc32)CC1` (configuration not stated): 91 to 93 °C.
The same measure for `CN(C1=CC(C)(C)Oc2ccc(OCCCC(F)(F)F)cc21)S(C)(=O)=O`: 118 °C.
As to `Cc1nc2c(n1-c1ccccc1)C(=O)c1ccccc1C2=O`, the melting point worked out at 242 °C.
The same measure for `O=C(Nc1ccnnc1)Oc1ccccc1`: 184 to 185 °C.
In the case of `CCc1cc2c(Sc3ccc(C)cc3)ncnc2s1`, the melting point fell in the range of 56 to 58 °C.
In the case of `Cc1cc(C)nc(NC(=O)NS(=O)(=O)c2cc(Cl)sc2Cl)n1`, the melting point lay in the range of 192 to 194 °C.
Under `COc1ccc(C2COc3cc(OC(C)=O)c(OC(C)=O)cc3C2)cc1` (configuration not stated) stands 104 °C; under `CC(=O)c1c(-c2ccccc2)n(C)c2ccccc12`, 76 to 77 °C.
Under `Cc1cccc(-c2ccc3c(c2)CC[C@H]2N(C)C(=O)CC[C@]32C)c1C` stands 133 to 140 °C.
With `COc1cc(C)c(C(=O)c2c(Cl)cccc2Cl)cc1Oc1ccccc1`, the melting point is 89 °C.
The molecule `CCCCCCCCCCCCCCOc1ccccc1O` registered a melting point of 53 to 54 °C.
Take `Cn1c(-c2ccc(-c3ccccn3)cc2)c(C(=O)O)c(=O)n1-c1ccc(C#N)cc1`: the melting point was in the range of 155 to 166 °C.
For `NC(=O)c1c(F)ccc(OCc2nc(-c3ccc(O)cc3)no2)c1F`, the melting point fell in the range of 209 to 210 °C.
The same measure for `CN(CCNc1ccc2c3c(c4c(OCc5ccccc5)ccc(OCc5ccccc5)c4cc13)NN2CCN(CCO)Cc1ccccc1)Cc1ccccc1`: 147 to 149 °C; for `C=Cc1[nH]c2cccc3c2c1CC1C3CC(NC(=O)N(CC)CC)CN1C` (configuration not stated): 145 to 150 °C.
The same measure for `C=Cc1cc(O)cc2nc(-c3ccc(O)cc3F)oc12`: 274 to 275 °C.
Under `CCCCCN(CCCCC)CCCOC(=O)c1ccc2c(c1)-c1ccc(C(=O)OCCCN(CCCCC)CCCCC)c3cccc-2c13` stands 148 to 151 °C; under `COC1(NC(=O)c2ccccc2)CC1`, 190 to 191 °C; under `CCC(CC)n1ncn(-c2ccc(N3CCNCC3)cc2)c1=O`, 135 to 137 °C.
In turn, `CC(C)(C)OC(=O)NC1CCN(c2ccc(C(=O)O)cc2)CC1` showed a melting point above 300 °C.
The same measure for `O=C(O)C(O)(c1cccs1)c1cccs1`: 84 °C; for `O=C1CN2CCOC2(c2ccccc2Cl)c2cc([N+](=O)[O-])ccc2N1` (configuration not stated): 201 to 203 °C.
Under `COc1cc(OC)c2c(=O)cc(-c3ccccc3)oc2c1` stands 147 to 149 °C.
Under `CC(C)(C)c1cccc(C(C)(C)C)c1OP1OP(Oc2c(C(C)(C)C)cccc2C(C)(C)C)OP(Oc2c(C(C)(C)C)cccc2C(C)(C)C)O1` (configuration not stated) stands 115 to 132 °C; under `O=C(CCCN1C(=O)c2ccccc2C1=O)N1CCC(C2c3ncc(Br)cc3CCc3cc(Cl)cc(Br)c32)CC1` (single isomer, unassigned; (+)), 100 to 102 °C; under `CN(CC#N)[C@H](COCc1cc(C(F)(F)F)cc(C(F)(F)F)c1)c1ccccc1`, 110 to 111 °C.
Regarding `Nc1ncc2ncn(OCC(O)CO)c2n1` (configuration not stated), the melting point lay in the range of 183 to 185 °C.
For `COC(=O)c1ccc(C#CC(C)(O)c2ccc3c(c2)C(C)(C)CCC3(C)C)cc1O` (configuration not stated), the melting point fell in the range of 110 to 115 °C.
Under `CC(=O)OCCC1Cc2c(C)c(OCc3ccccc3)c(C)c(C)c2O1` (racemic) stands 80 to 82 °C; under `O=C1NCC=NN1c1cc(Cl)c(Sc2ccc(Cl)cc2)c(Cl)c1`, 224 to 225 °C; under `O=c1nc(-c2ccccc2)c2cc([N+](=O)[O-])sc2n1CC1CC1`, 216 to 218 °C.
Molecule `CCCc1nn2ncc(C(=O)OCC)c2n1Cc1ccc(-c2ccccc2-c2nnnn2C(c2ccccc2)(c2ccccc2)c2ccccc2)cc1` came in with a melting point of 106 to 108 °C.
The same measure for `CCOC(=O)OCCn1nc(-c2cc(C(C)(C)C)c(O)c(C(C)(C)C)c2)c2cccnc21`: 103 to 105 °C; for `Cn1c(-c2ccc(-c3nccs3)cc2)cnc1[C@H](Cc1ccccn1)N(C=O)c1cc2cc(Cl)ccc2o1`: 144 to 146 °C; for `COC(=O)CC1=C(C)/C(=C/c2ccc(S(C)(=O)=O)cc2)c2ccc(F)cc21`: 162 to 164 °C.
Consider `CCOC(=O)c1cc(S(=O)(=O)c2ccccc2)c2ccccn2c1=O`, for which the melting point amounted to 182 °C.
The same measure for `O=C1Nc2cccnc2N(C(=O)N2CCC(CCCN3CCCCC3)CC2)c2ccccc21`: 200 °C.
The same measure for `CCOC(=O)C1=C(C)Nc2nc(N3CCOCC3)nc(N3CCOCC3)c2C1c1cccs1` (configuration not stated): 205 °C.
In turn, `COc1ccc2cc(C3=CCNCC3)sc2c1` registered a melting point of 124 to 127 °C.
Under `CCCCc1cc2cc(NS(C)(=O)=O)ccc2o1` stands 105 to 106 °C.
`COc1ccc2[nH]c3c(c2c1)CCSc1ccccc1-3` showed a melting point of 151 to 154 °C.
The same measure for `COc1ccc(CNc2ccccc2[N+](=O)[O-])cc1`: 75 to 78 °C; for `COc1cc(OC)c2c(c1)C(C)(C)C1(C=Cc3cc([N+](=O)[O-])cc(OC)c3S1)N2C` (configuration not stated): 131 °C.
The molecule `CC(=O)c1c(-c2ccncc2)sc(-c2ccncc2)c1C` registered a melting point of 137 to 138 °C.
`COC(=O)c1c(NC(C)C)cccc1S(=O)(=O)NC(C)(C)C` came in with a melting point of 110 to 112 °C.
The same measure for `O=C(NC1CCCC1)c1ccc(-c2ccc3nnn(Cc4ccc5ncccc5c4)c3n2)cc1F`: 166 to 168 °C.
In the case of `CC(=O)C=Cc1cccc(OCCF)c1OCCF`, the melting point lay within 71 to 72 °C.
The same measure for `COc1cc(-c2ccccc2C(F)(F)F)c(Cl)cc1C(=O)N1Cc2ccc(C(=O)N(C)CC(O)C(O)C(O)C(O)CO)n2Cc2ccccc21` (configuration not stated): 150 to 151 °C; for `COc1nc(I)cc(C(O)C(C)(C)C)c1C` (configuration not stated): 64 to 65 °C; for `O=C(O)CCc1ccc(O[C@H]2CCc3ccccc32)cc1`: 112 to 113 °C.
`CC1(C)CCC(O)(c2ccc(=O)[nH]c2)CC1` came in with a melting point of 210 to 211 °C.
The molecule `O=C(Nc1cccc(Br)c1)NC1C(=O)N(CC23CC4CC(CC(C4)C2)C3)c2ccccc2N(c2ccccc2)C1=O` (configuration not stated) displayed a melting point of 254 °C.
Under `S=C(Nc1cc(Cl)cc(Cl)c1)Nc1cc(OCc2cccc3ccccc23)ccc1Br` stands 149 to 151 °C; under `O=C(Cc1c[nH]cn1)NC(P(=O)(O)O)P(=O)(O)O`, 247 to 250 °C; under `O=C(CC(c1ccccc1)c1ccccc1)N1CCC(N2Cc3ccccc3C2=O)CC1`, 166 to 169 °C.
With `Nc1cc(=O)n(Cc2ccccc2F)[nH]1`, the melting point stood at 146 °C.
The same measure for `O=C1OC(=O)C2CCCC1C2`: 138 to 140 °C; for `CCCN(CCC)[C@H]1Cc2c[nH]c3ccc(C(=O)NN)c(c23)C1`: 137 to 138 °C.
Under `COc1ccc(-c2cc3cc(F)c(F)cc3[nH]2)cc1NCc1cccc([N+](=O)[O-])c1` stands 212 to 214 °C; under `Cc1c(C)c2c(c(C)c1N)CC(C)(CN1CCC(Nc3ccccc3)CC1)O2` (configuration not stated), 116 to 118 °C; under `Cc1csc(-c2ccc3c(c2)C=C(C(=O)Nc2ccc(CN(C)C4CCOCC4)cc2)CCO3)c1`, 147 to 148 °C.
Consider `COc1c(C(C)(C)C)cc([PH](=O)c2cc(C(C)(C)C)c(OC)c(C(C)(C)C)c2)cc1C(C)(C)C`, for which the melting point is 166 °C.
For `COc1ccc(C(=O)O)cc1Oc1ccc(C(F)(F)F)cc1Cl`, the melting point lay in the range of 162 to 165 °C.
The molecule `Cc1c([N+](=O)[O-])ccc(N)c1C(=O)O` gave a melting point of 183 to 184 °C.
Under `COC(=O)c1cccc([N+](=O)[O-])c1NCc1ccc(-c2ccccc2C#N)cc1` stands 140 to 141 °C.
Under `CCOC(=N)N1Cc2ccccc2-c2ccccc2C1` stands 68 to 71 °C.
The same measure for `O=C(CCN1C(=O)CSC1=S)Nc1ccccc1[N+](=O)[O-]`: 170 to 171 °C; for `COc1c(Cl)ccc(-c2cc(N)c(Cl)c(C(=O)NOC3CCCO3)n2)c1F` (configuration not stated): 180 to 183 °C; for `CCCCSc1cc2nc3ccccc3sc-2cc1=O`: 133 °C.
Turning to `Cc1nc2ccccc2n2c(-c3cc(OCC(O)c4ccccn4)ccc3Cl)nnc12` (configuration not stated), the melting point is 193 to 194 °C.
In the case of `CNc1cccc(-c2ccnc3c(C(=O)c4ccccc4)cnn23)c1`, the melting point lay in the range of 134 to 136 °C.
